Each block holds one molecule with its values, some of them ahead of it.
Experiments:
[1] = Degradation of peptide in human gastro-intestinal juice (HPLC); conditions: intestinal juice from the ileum, pH 6.5, increasing amounts of aprotinin
Method: (§1) Human gastro-intestinal juice was obtained from healthy male volunteers who had been fasting for 8 h. A tube was introduced intranasally after local anaesthesia with xylocaine, and gastric juice was collected. Thereafter one standardized meal was given 1 h before sampling of duodenal and distal jejunum juice and another the next morning before the collection of distal ileal juice. After centrifugation the gastric and intestinal juices were frozen in aliquots of 1 ml and stored at -20° C.
(§2) The peptide or peptide analog (10 μl of 10 mM peptide in 0.9% aqueous NaCl) was added to 190 μl of undiluted juice at 37° C. Aliquots of 25 μl were withdrawn at intervals and mixed with 100 μl acetone to stop the reaction. After centrifugation for 10 min at 10,000 g, 10 μl of the supernatant was analyzed by reversed phase HPLC. The effects of increasing amounts of aprotinin were examined under the above conditions in intestinal juice from the ileum.
(§3) Analysis was carried out in a Varian 5000 HPLC analyzer equipped with a UV-detector (220 nm). Column Bondapak TM C18 (3.9×300 mm), eluant MeOH/0.025M NH4 Ac (isocratic conditions), flow rate 1 ml/min.

[2] = in the presence of aprotinin, rat; cited from earlier work
[3] = pH 6.5
Method: as §1, §2, §3

[4] = human, in vivo
Method: Experiments with healthy volunteers. After having fasted for 8 hours six healthy male volunteers were intubated (cf. example 1) with quadruple lumen flexible PVC tubes. The open end of the tube was positioned in the duodenum close to the pylorus; correct positioning was verified fluoroscopically. DDAVP acetate (0.4 mg in 2 ml 0.9% aqueous sodium chloride) was applied at the start and the tube was rinsed with 2 ml 0.9% aqueous sodium chloride. Perfusion with aprotinin (ANTAGOSAN™, Hoechst, Germany; aqueous solution, 10,000 kallikrein inactivator units/ml) started immediately after application of DDAVP and continued for 4 h at a rate of 5 ml/min. A standard breakfast was given 5-10 min after application of DDAVP, and a standardized meal 4 h later. From 2 h after start onwards the volunteers were given 100 ml/h water orally. Each volunteer participated in three sessions.
Bioavailability was determined for each subject in a separate session by intravenous bolus injection of DDAVP (4 μg); blood samples were drawn before and up to 8 h after drug application and analyzed for DDAVP as described above.

- Inhibition of DDAVP degradation by aprotinin [1]: concentration-dependent inhibition
Molecule: aprotinin

Molecule: (1-deamino-4-valine)-8-D-arginine-vasopressin
- Urine retention after gastric administration of an aqueous solution [2]: moderately enhanced

- DDAVP degraded to (after 35 min) [3]: about 50%
- Increase of DDAVP absorption in presence of aprotinin [4]: about five-fold
- DDAVP absorption (bioavailability) ([4]; male, 0.4 mg): about 0.1 % by weight
Molecule: NC(=O)CC[C@@H]1NC(=O)[C@H](Cc2ccccc2)NC(=O)[C@H](Cc2ccc(O)cc2)NC(=O)CCSSC[C@@H](C(=O)N2CCC[C@H]2C(=O)N[C@H](CCCN=C(N)N)C(=O)NCC(N)=O)NC(=O)[C@H](CC(N)=O)NC1=O [DDAVP, desmopressin]
